Measurements taken from patent publication EP0908457B1, “3-(1,2-benzisothiazol- and isoxazol-5-Y1)-2,4(1H,3H)-pyrimidinedione or thione and 3-(1,2-benzisothiazol- and isoxazol-5-y1)-4(3H)-pyrimidinone or thione herbicidal agents” (BASF AKTIENGESELLSCHAFT, priority 1997, dated 1999).

Tests used:
[1] = test system: Echinochloa oryzoides (Ard.) Fritsch.; assay: Preemergence weed control under flooded paddy conditions, ECHORC (Watergrass (Calif.)); assay type: in vivo; settings: preemergence, flooded paddy, rated three to four weeks after treatment
[2] = test system: Cyperus iria; assay: Preemergence weed control under flooded paddy conditions, CYPIR (Rice Flatsedge); assay type: in vivo; settings: preemergence, flooded paddy, rated three to four weeks after treatment
[3] = test system: Cyperus serotinus, Rottb.; assay: Preemergence weed control under flooded paddy conditions, CYPSE (Flatsedge); assay type: in vivo; settings: preemergence, rated three to four weeks after treatment
[4] = test system: Monochoria vaginalis, Presl.; assay: Preemergence weed control under flooded paddy conditions, MOOVA (Monochoria); assay type: in vivo; settings: preemergence, flooded paddy, rated three to four weeks after treatment
[5] = test system: Sagittaria pygmaea, L.; assay: Preemergence weed control under flooded paddy conditions, SAGPY (Arrowhead (Pygmaea)); assay type: in vivo; settings: preemergence, flooded paddy, rated three to four weeks after treatment
[6] = test system: Oryza sativa, (L.) Tebonnet; assay: Rice tolerance to post-transplant applications under flooded paddy conditions (Example 187), ORYSAT (Rice, Tebonnet); settings: rated three to four weeks after treatment
Also: meaning of each grade not given here.

SMILES | herbicidal effect rating, ECHORC ([1]; Rate 0.0320 kg/ha) | herbicidal effect rating, ECHORC ([1]; Rate 0.0620 kg/ha) | herbicidal effect rating, ECHORC ([1]; Rate 0.1250 kg/ha) | herbicidal effect rating, ECHORC ([1]; Rate 0.2500 kg/ha) | herbicidal effect rating, CYPIR ([2]; Rate 0.0320 kg/ha) | herbicidal effect rating, CYPIR ([2]; Rate 0.0620 kg/ha) | herbicidal effect rating, CYPIR ([2]; Rate 0.1250 kg/ha) | herbicidal effect rating, CYPIR ([2]; Rate 0.2500 kg/ha) | herbicidal effect rating, CYPSE ([3]; Rate 0.0320 kg/ha) | herbicidal effect rating, CYPSE ([3]; Rate 0.2500 kg/ha) | herbicidal effect rating, MOOVA ([4]; Rate 0.1250 kg/ha) | herbicidal effect rating, MOOVA ([4]; Rate 0.2500 kg/ha) | herbicidal effect rating, SAGPY ([5]; Rate 0.0320 kg/ha) | herbicidal effect rating, SAGPY ([5]; Rate 0.0620 kg/ha) | herbicidal effect rating, SAGPY ([5]; Rate 0.1250 kg/ha) | herbicidal effect rating, SAGPY ([5]; Rate 0.2500 kg/ha) | herbicidal effect rating ORYSAT ([6]; Rate 0.0320 kg/ha) | herbicidal effect rating ORYSAT ([6]; Rate 0.0620 kg/ha) | herbicidal effect rating ORYSAT ([6]; Rate 0.1250 kg/ha) | herbicidal effect rating ORYSAT ([6]; Rate 0.2500 kg/ha) | other results
Cn1c(C(F)(F)F)cc(=O)n(-c2ccc3snc(C(C#N)=Cc4ccc[nH]4)c3c2)c1=O [Example 598, 1,2-Benzisothiazole-3-acetonitrile, 5-[3,6-dihydro-3-methyl-2,6-dioxo-4-(trifluoromethyl)-1(2H)-pyrimidinyl]-alpha-(pyrrol-2-ylmethylene)-] | 0.0 | 0.0 | 0.0 | 0.0 | 0.0 | 0.0 | 2.0 | 3.0 | 0.0 | 0.0 | 7.0 | 7.0 | 0.0 | 0.0 | 0.0 | 0.0 | 0.0 | 0.0 | 3.0 | 3.0 | –
COc1ccccc1C=C(C#N)c1nsc2ccc(-n3c(=O)cc(C(F)(F)F)n(C)c3=O)cc12 [Example 599, 1,2-Benzisothiazole-3-acetonitrile, 5-[3,6-dihydro-3-methyl-2,6-dioxo-4-(trifluoromethyl)-1(2H)-pyrimidinyl]-alpha-(o-methoxybenzylidene)-] | 0.0 | 0.0 | 0.0 | 4.0 | 0.0 | 0.0 | – | 3.0 | – | 0.0 | – | 7.0 | 0.0 | 0.0 | 0.0 | 0.0 | 2.0 | 3.0 | 3.0 | 5.0 | herbicidal effect rating, CYPSE ([3]; Rate 0.0620 kg/ha): 0.0; herbicidal effect rating, MOOVA ([4]; Rate 0.0320 kg/ha): 6.0; herbicidal effect rating, MOOVA ([4]; Rate 0.0620 kg/ha): 7.0
Cn1c(C(F)(F)F)cc(=O)n(-c2ccc3snc(C(C#N)=Cc4ccc(O)cc4)c3c2)c1=O [Example 600, 1,2-Benzisothiazole-3-acetonitrile, 5-[3,6-dihydro-3-methyl-2,6-dioxo-4-(trifluoromethyl)-1(2H)-pyrimidinyl]-alpha-(p-hydroxybenzylidene)-] | 0.0 | 0.0 | 0.0 | 2.0 | 0.0 | 0.0 | 0.0 | 2.0 | 0.0 | 0.0 | 7.0 | 7.0 | 0.0 | 0.0 | 0.0 | 0.0 | 3.0 | 3.0 | 4.0 | 4.0 | herbicidal effect rating, CYPSE ([3]; Rate 0.0620 kg/ha): 0.0; herbicidal effect rating, MOOVA ([4]; Rate 0.0320 kg/ha): 6.0; herbicidal effect rating, MOOVA ([4]; Rate 0.0620 kg/ha): 6.0
Cn1c(C(F)(F)F)cc(=O)n(-c2ccc3snc(C(C#N)=Cc4cc5ccccc5[nH]4)c3c2)c1=O [Example 601, 1,2-Benzisothiazole-3-acetonitrile, 5-[3,6-dihydro-3-methyl-2,6-dioxo-4-(trifluoromethyl)-1(2H)-pyrimidinyl]-alpha-(indol-2-ylmethylene)-] | 0.0 | 0.0 | 2.0 | 6.0 | 0.0 | 0.0 | 4.0 | 4.0 | 0.0 | 3.0 | 9.0 | 9.0 | 0.0 | 0.0 | 0.0 | 0.0 | 4.0 | 5.0 | 6.0 | 7.0 | herbicidal effect rating, CYPSE ([3]; Rate 0.0620 kg/ha): 0.0; herbicidal effect rating, CYPSE ([3]; Rate 0.1250 kg/ha): 0.0; herbicidal effect rating, MOOVA ([4]; Rate 0.0320 kg/ha): 6.0; herbicidal effect rating, MOOVA ([4]; Rate 0.0620 kg/ha): 7.0
